# Assay results: paper PMC7060258 (Scientific Reports, 2020)
# Tests used:
# rat = settings: cited from earlier work
# [1] = test system: murine neuroblastoma Neuro2a cells; assay: Intracellular ROS formation level (H2DCF-DA); format: cell-based; settings: 6-OHDA 25 µM alone
# Description: We estimated whether rHCIQ2c1 is able to inhibit reactive oxygen species (ROS) production. After incubation of Neuro2a cells with rHCIQ2c1 (up to 10 µM) and 6-OHDA (25 µM), ROS content was evaluated by measurement of dichlorofluorescin intensity.
# The intracellular ROS level was detected using 2,7-dichlordihydrofluorescein diacetate (H2DCF-DA) solution (Molecular Probes, final concentration 10 µM). In this study, mouse neuroblastoma Neuro2a cells seeded on 96-well plates were washed twice with serum-free DMEM and thereafter incubated for 1 h in serum-free MEM medium in the presence of compounds in concentrations from 10 pM to 10 µM. Cell were treated with 6-OHDA (25 μM) for 30 min at 37 °C with 5% CO2. Followed by treatment with 6-OHDA, the cells were washed once with PBS. After washing with serum-free DMEM medium, the cells were loaded with H2DCF-DA for 30 min. The intensity of dichlorofluorescin fluorescence was measured with plate reader PHERAstar FS (BMG Labtech, Germany) at λex = 485 nm and λem = 518 nm. The cytoprotective effect of peptides and the increase in cell viability under their action was calculated as a percentage, taking the cell viability treated with 6-OHDA as 100%.
Compound,Effect on MPTP-induced neurodegeneration and rat behavioral disturbances (rat),ROS level [1]
Nc1ccncc1 [4-aminopyridine],suppresses MPTP-induced neurodegeneration and rat behavioral disturbances,
"NCCc1cc(O)c(O)cc1O [6-OHDA, 6-hydroxydopamine, reference compound]",,highest ROS level
